Data published in ChEMBL document CHEMBL1126825, “4-Methoxy-2-methyltetrahydropyrans: chiral leukotriene biosynthesis inhibitors, related to ICI D2138, which display enantioselectivity” (J Med Chem, 1993).

Legend:
Mus musculus = organism: Mus musculus; assay: In vitro inhibition of LTC4 biosynthesis in plasma protein-free cultures of zymosan-stimulated mouse macrophages; assay type: functional
Homo sapiens = organism: Homo sapiens; assay: In vitro inhibition of LTB4 biosynthesis in A-23187-stimulated human whole blood; assay type: functional

Compound	IC50 (Mus musculus)	IC50 (Homo sapiens)
CO[C@]1(c2cc(F)cc(OCc3ccc4c(ccc(=O)n4C)c3)c2)CCO[C@@H](C)C1	0.4 nM	–
CO[C@@]1(c2cc(F)cc(OCc3ccc4c(ccc(=O)n4C)c3)c2)CCO[C@H](C)C1	9 nM	670 nM
CO[C@]1(c2cc(F)cc(OCc3ccc4c(ccc(=O)n4C)c3)c2)CCO[C@H](C)C1	8 nM	140 nM
CO[C@@]1(c2cc(F)cc(OCc3ccc4c(ccc(=O)n4C)c3)c2)CCO[C@@H](C)C1	60 nM	1760 nM
